The source of these data is patent US8575091B1, “Amylin analogues and pharmaceutical compositions thereof” (Novo Nordisk A/S, priority 2012, dated 2013).

Each structure is given as a SMILES string. Numbered stars: 1 amine (or outer) side, 2 acyl side, 3 side chain; on linkers, the order of the positions; unused ones are H or OH. Bridge positions count the residues as written; N and C are the ends. Side chains are listed from the residue outwards. Peptide text beside a SMILES is read from it. * marks the point of attachment. C20 diacid = O=C(O)CCCCCCCCCCCCCCCCCCC(=O)*; γGlu = O=C(O)[C@H](CCC(=O)[*:2])N[*:1]; AEEA = NCCOCCOCC(=O)O

Assay [1] has as its target T1, human calcitonin receptor (Homo sapiens, UniProt P30988).
T1 construct: expressed in transfected cells
T1 sequence (P30988 25-474): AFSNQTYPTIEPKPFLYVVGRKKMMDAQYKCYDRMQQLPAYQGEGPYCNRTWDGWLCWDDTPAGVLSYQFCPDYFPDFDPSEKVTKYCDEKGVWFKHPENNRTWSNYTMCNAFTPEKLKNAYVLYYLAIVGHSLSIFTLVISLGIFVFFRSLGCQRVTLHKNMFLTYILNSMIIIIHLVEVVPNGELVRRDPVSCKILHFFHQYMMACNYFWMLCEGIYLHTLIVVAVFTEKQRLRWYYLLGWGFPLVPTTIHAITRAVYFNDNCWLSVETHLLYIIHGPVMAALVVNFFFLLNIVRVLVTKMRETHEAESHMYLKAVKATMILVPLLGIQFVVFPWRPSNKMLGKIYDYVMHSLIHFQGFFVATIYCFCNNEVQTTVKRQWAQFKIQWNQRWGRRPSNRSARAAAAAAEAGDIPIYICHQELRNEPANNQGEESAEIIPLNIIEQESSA
Nature of the assay: Assay (VII) binding to the human calcitonin receptor (SPA, 125I-Calcitonin).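 Further: cell membranes coupled to SPA beads, competitive displacement read by scintillation counting, IC50 derived from a one-site competition fit as a measure of receptor affinity.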 The conditions noted are these: read-out: hCTR bind IC50.

In assay [2] the target is T1, human calcitonin receptor. Nature of the assay: Assay (II)a functional assay, human calcitonin receptor (CRE luciferase, BHK cells).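 Further: luminescence from a CRE-driven luciferase reporter, read by single photon counting after cells were exposed to test samples for 3 h at 37 °C under 5% CO2.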 In kind it is cell-based. The conditions noted are these: read-out: hCTR funct. EC50.
Experimental: Assay (II)—Functional Assays
Consequently, transcription is activated by promoters containing multiple copies of the cAMP response element (CRE).
The cell line was further transfected with RAMP-3, using standard methods.
After incubation overnight at 37° C. and 5% CO2, the growth medium was replaced by 50 μl/well assay medium (DMEM (without phenol red), Glutamax™, 10% FBS, and 10 mM Hepes, pH 7.4). Further, 50 μl/well of standard or sample in assay buffer were added. After 3 hours incubation at 37° C. and 5% CO2, the assay medium with standard or sample were removed and replaced by 100 μl/well PBS. Further, 100 μl/well LucLite™ was added. The plates were sealed and incubated at room temperature for 30 minutes. Finally, luminescence was measured on a TopCounter (Packard) in SPC (single photon counting) mode.
The target of assay [3] is T2, human amylin receptor (Homo sapiens, UniProt O60896+P30988).
T2 construct: expressed in transfected cells
T2 sequence (P30988 25-474): T1 sequence (P30988 25-474)
T2 sequence (O60896 24-148 partner): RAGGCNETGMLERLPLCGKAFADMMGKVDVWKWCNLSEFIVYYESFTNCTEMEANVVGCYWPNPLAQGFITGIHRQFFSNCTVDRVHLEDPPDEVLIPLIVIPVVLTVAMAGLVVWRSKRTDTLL
The assay is described as follows: Assay (V) binding to the human amylin receptor (SPA, 125I-rat amylin). The conditions noted are these: human amylin receptor membranes, SPA; read-out: hAmylin-R bind IC50. In outline:
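SPA competition binding on membranes from Amylin 3(a)/CRE-luc cells, 35 ng/μL membranes with 0.05 mg/well beads. Buffer 50 mM Hepes pH 7.4, 1 mM CaCl2, 5 mM MgCl2, 0.1% OA, 0.02% Tween20. IC50 from one-site competition fit as affinity measure.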

Assay [4] concerns the target T3, human amylin receptor (amylin 3(a) receptor: human calcitonin receptor + RAMP-3) (Homo sapiens, UniProt O60896+P30988).
T3 construct: expressed in transfected cells
T3 sequence (P30988 25-474): T1 sequence (P30988 25-474)
T3 sequence (O60896 24-148 partner): T2 sequence (O60896 24-148 partner)
The assay is described as follows: Assay (II)a functional assay, human amylin receptor (CRE luciferase, BHK cells). In kind it is cell-based. To be noted: for EC50: functional assay, human amylin receptor, read-out: hAmylin-R funct. EC50.

Regarding `CC[C@H](C)[C@H](NC(=O)[C@H](C)NC(=O)CNC(=O)[C@H](Cc1ccccc1)NC(=O)[C@H](CC(N)=O)NC(=O)[C@@H]1CCCN1C(=O)[C@H](CO)NC(=O)[C@H](CO)NC(=O)[C@H](Cc1c[nH]cn1)NC(=O)[C@H](CCCNC(=N)N)NC(=O)[C@H](CC(C)C)NC(=O)[C@H](Cc1ccccc1)NC(=O)[C@H](CC(N)=O)NC(=O)[C@H](C)NC(=O)[C@H](CC(C)C)NC(=O)[C@H](CCCNC(=N)N)NC(=O)[C@H](CCC(N)=O)NC(=O)[C@@H](NC(=O)[C@H](C)NC(=O)[C@@H]1CSSC[C@H](NC(=O)[C@H](CCCNC(=N)N)NC(=O)[C@@H](N)CCCCNC(=O)COCCOCCNC(=O)CC[C@H](NC(=O)CCCCCCCCCCCCCCCCCCC(=O)O)C(=O)O)C(=O)N[C@@H](CC(N)=O)C(=O)N[C@@H]([C@@H](C)O)C(=O)N[C@@H](C)C(=O)N[C@@H]([C@@H](C)O)C(=O)N1)[C@@H](C)O)C(=O)N1CCC[C@H]1C(=O)N[C@@H](CO)C(=O)N[C@@H](CO)C(=O)N[C@H](C(=O)N[C@@H](CC(N)=O)C(=O)N[C@H](C(=O)NCC(=O)N[C@@H](CO)C(=O)N[C@@H](Cc1c[nH]cn1)C(=O)N[C@H](C(=O)N[C@@H](Cc1ccc(O)cc1)C(N)=O)[C@@H](C)O)C(C)C)[C@@H](C)O` [Example 45] (H-K([AEEA-γGlu-C20 diacid])RCNTATCATQRLANFLRHSSPNFGAIPSSTNVGSHTY-NH2; disulfide 3-8), the values for the IC50 in assay [1] and in assay [3] were 14.8 nM and 0.552 nM, respectively. Moreover, the EC50 (in general, the concentration needed to bring the measured effect to its halfway point) in assay [2] turned out to be 10.1 nM; in assay [4], 0.594 nM. The “Ratio hCT/hAmylin funct.” value in assay [4] (Table 6, human functional selectivity (hCTR EC50 / hAmylin-R EC50)) came to 17.0; in assay [4] (Table 6a, human functional selectivity (hCTR EC50 / hAmylin-R EC50), at least 5), 17.0; in assay [4] (Table 6j, hCTR funct. EC50 / hAmylin-R funct. EC50), 17.0; in assay [4] (Table 6k, hCTR funct. EC50 / hAmylin-R funct. EC50), 17.0.

In the case of `CC[C@H](C)[C@H](NC(=O)[C@H](C)NC(=O)CNC(=O)[C@H](Cc1ccccc1)NC(=O)[C@H](CC(N)=O)NC(=O)[C@@H]1CCCN1C(=O)[C@H](CO)NC(=O)[C@H](CO)NC(=O)[C@H](Cc1c[nH]cn1)NC(=O)[C@H](CCCNC(=N)N)NC(=O)[C@H](CC(C)C)NC(=O)[C@H](Cc1ccccc1)NC(=O)[C@H](CC(N)=O)NC(=O)[C@H](C)NC(=O)[C@H](CC(C)C)NC(=O)[C@H](CCCNC(=N)N)NC(=O)[C@H](CCC(N)=O)NC(=O)[C@@H](NC(=O)[C@H](C)NC(=O)[C@@H]1CSSC[C@H](NC(=O)[C@H](CCCCN)NC(=O)CC[C@H](NC(=O)CCCCCCCCCCCCCCCCCCC(=O)O)C(=O)O)C(=O)N[C@@H](CC(N)=O)C(=O)N[C@@H]([C@@H](C)O)C(=O)N[C@@H](C)C(=O)N[C@@H]([C@@H](C)O)C(=O)N1)[C@@H](C)O)C(=O)N1CCC[C@H]1C(=O)N[C@@H](CO)C(=O)N[C@@H](CO)C(=O)N[C@H](C(=O)N[C@@H](CC(N)=O)C(=O)N[C@H](C(=O)NCC(=O)N[C@@H](Cc1c[nH]cn1)C(=O)N[C@@H](CC(N)=O)C(=O)N[C@H](C(=O)N[C@@H](Cc1ccc(O)cc1)C(N)=O)[C@@H](C)O)C(C)C)[C@@H](C)O` [Example 40], the IC50 (in general, the point on the concentration scale where inhibition reaches its midpoint) was 17.1 nM in assay [1] and 0.549 nM in assay [3]. Moreover, the EC50 in assay [2] worked out at 2.68 nM; in assay [4], 0.164 nM.

As for `CC[C@H](C)[C@H](NC(=O)[C@H](C)NC(=O)CNC(=O)[C@H](Cc1ccccc1)NC(=O)[C@H](CC(N)=O)NC(=O)[C@@H]1CCCN1C(=O)[C@H](CO)NC(=O)[C@H](CO)NC(=O)[C@H](Cc1c[nH]cn1)NC(=O)[C@H](CCCNC(=N)N)NC(=O)[C@H](CC(C)C)NC(=O)[C@H](Cc1ccccc1)NC(=O)[C@H](CC(N)=O)NC(=O)[C@H](C)NC(=O)[C@H](CC(C)C)NC(=O)[C@H](CCCNC(=N)N)NC(=O)[C@H](CCC(N)=O)NC(=O)[C@@H](NC(=O)[C@H](C)NC(=O)[C@@H]1CSSC[C@H](NC(=O)[C@@H](N)CCCCNC(=O)COCCOCCNC(=O)CC[C@H](NC(=O)CCCCCCCCCCCCCCCCCCC(=O)O)C(=O)O)C(=O)N[C@@H](CC(N)=O)C(=O)N[C@@H]([C@@H](C)O)C(=O)N[C@@H](C)C(=O)N[C@@H]([C@@H](C)O)C(=O)N1)[C@@H](C)O)C(=O)N1CCC[C@H]1C(=O)N[C@@H](CO)C(=O)N[C@@H](CO)C(=O)N[C@H](C(=O)N1CCC[C@H]1C(=O)N[C@H](C(=O)NCC(=O)N[C@@H](CO)C(=O)N[C@@H](CC(N)=O)C(=O)N[C@H](C(=O)N[C@@H](Cc1ccc(O)cc1)C(N)=O)[C@@H](C)O)C(C)C)[C@@H](C)O` [Example 49], the IC50 was found to be 12.9 nM in assay [1] and 1.19 nM in assay [3]. For the same compound, the EC50 in assay [2] was determined as 2.39 nM; in assay [4] it was 0.106 nM.

As for `CC[C@H](C)[C@H](NC(=O)[C@H](C)NC(=O)CNC(=O)[C@H](Cc1ccccc1)NC(=O)[C@H](CC(N)=O)NC(=O)[C@@H]1CCCN1C(=O)[C@H](CO)NC(=O)[C@H](CO)NC(=O)[C@H](Cc1c[nH]cn1)NC(=O)[C@H](CCCNC(=N)N)NC(=O)[C@H](CC(C)C)NC(=O)[C@H](Cc1ccccc1)NC(=O)[C@H](CCC(=O)O)NC(=O)[C@H](C)NC(=O)[C@H](CC(C)C)NC(=O)[C@H](CCCNC(=N)N)NC(=O)[C@H](CCC(N)=O)NC(=O)[C@@H](NC(=O)[C@H](C)NC(=O)[C@@H]1CSSC[C@H](NC(=O)[C@@H](N)CCCCNC(=O)CC[C@H](NC(=O)CCCCCCCCCCCCCCCCCCC(=O)O)C(=O)O)C(=O)N[C@@H](CC(N)=O)C(=O)N[C@@H]([C@@H](C)O)C(=O)N[C@@H](C)C(=O)N[C@@H]([C@@H](C)O)C(=O)N1)[C@@H](C)O)C(=O)N1CCC[C@H]1C(=O)N[C@@H](CO)C(=O)N[C@@H](CO)C(=O)N[C@H](C(=O)N[C@@H](CC(N)=O)C(=O)N[C@H](C(=O)NCC(=O)N[C@@H](CO)C(=O)N[C@@H](Cc1c[nH]cn1)C(=O)N[C@H](C(=O)N[C@@H](Cc1ccc(O)cc1)C(N)=O)[C@@H](C)O)C(C)C)[C@@H](C)O` [Example 128] (H-K([γGlu-C20 diacid])CNTATCATQRLAEFLRHSSPNFGAIPSSTNVGSHTY-NH2; disulfide 2-7), the values for the IC50 in assay [1] and in assay [3] were 26.1 nM and 0.992 nM, respectively. Besides, the EC50 came out at 5.58 nM in assay [2] and 0.425 nM in assay [4].

As for `CC[C@H](C)[C@H](NC(=O)[C@H](C)NC(=O)CNC(=O)[C@H](Cc1ccccc1)NC(=O)[C@H](CC(N)=O)NC(=O)[C@@H]1CCCN1C(=O)[C@H](CO)NC(=O)[C@H](CO)NC(=O)[C@H](Cc1c[nH]cn1)NC(=O)[C@H](CCCNC(=N)N)NC(=O)[C@H](CC(C)C)NC(=O)[C@H](Cc1ccccc1)NC(=O)[C@H](CCCNC(=N)N)NC(=O)[C@H](C)NC(=O)[C@H](CC(C)C)NC(=O)[C@H](CCCNC(=N)N)NC(=O)[C@H](CCC(N)=O)NC(=O)[C@@H](NC(=O)[C@H](C)NC(=O)[C@@H]1CSSC[C@H](NC(=O)[C@@H](N)CCCCNC(=O)CC[C@H](NC(=O)CCCCCCCCCCCCCCCCCCC(=O)O)C(=O)O)C(=O)N[C@@H](CC(N)=O)C(=O)N[C@@H]([C@@H](C)O)C(=O)N[C@@H](C)C(=O)N[C@@H]([C@@H](C)O)C(=O)N1)[C@@H](C)O)C(=O)N1CCC[C@H]1C(=O)N[C@@H](CO)C(=O)N[C@@H](CO)C(=O)N[C@H](C(=O)N[C@@H](CC(N)=O)C(=O)N[C@H](C(=O)NCC(=O)N[C@@H](CO)C(=O)N[C@@H](CC(N)=O)C(=O)N[C@H](C(=O)N[C@@H](Cc1ccc(O)cc1)C(N)=O)[C@@H](C)O)C(C)C)[C@@H](C)O` [Example 83], the IC50 in assay [1] was found to be 137 nM; in assay [3] it was 0.939 nM. The EC50 in assay [2] was 16.8 nM; in assay [4], 0.405 nM.

For `CC[C@H](C)[C@H](NC(=O)[C@H](C)NC(=O)CNC(=O)[C@H](Cc1ccccc1)NC(=O)[C@H](CC(N)=O)NC(=O)[C@@H]1CCCN1C(=O)[C@H](CO)NC(=O)[C@H](CO)NC(=O)[C@H](Cc1c[nH]cn1)NC(=O)[C@H](CCCNC(=N)N)NC(=O)[C@H](CC(C)C)NC(=O)[C@H](Cc1ccccc1)NC(=O)[C@H](CC(N)=O)NC(=O)[C@H](C)NC(=O)[C@H](CC(C)C)NC(=O)[C@H](CCCNC(=N)N)NC(=O)[C@H](CCC(N)=O)NC(=O)[C@@H](NC(=O)[C@H](C)NC(=O)[C@@H]1CSSC[C@H](NC(=O)[C@@H](N)CCCCNC(=O)COCCOCCNC(=O)CCCCCCCCCCCCCCCCCCC(=O)O)C(=O)N[C@@H](CC(N)=O)C(=O)N[C@@H]([C@@H](C)O)C(=O)N[C@@H](C)C(=O)N[C@@H]([C@@H](C)O)C(=O)N1)[C@@H](C)O)C(=O)N1CCC[C@H]1C(=O)N[C@@H](CO)C(=O)N[C@@H](CO)C(=O)N[C@H](C(=O)N[C@@H](CC(N)=O)C(=O)N[C@H](C(=O)NCC(=O)N[C@@H](Cc1c[nH]cn1)C(=O)N[C@@H](CC(N)=O)C(=O)N[C@H](C(=O)N[C@@H](Cc1ccc(O)cc1)C(N)=O)[C@@H](C)O)C(C)C)[C@@H](C)O` [Example 91], the results for the IC50 in assay [1] and in assay [3] were 12 nM and 0.119 nM, respectively. The results for the EC50 in assay [2] and in assay [4] were 1.48 nM and 0.04 nM, respectively.
